This is an account of results in PMC6748986, “Potent modulation of the CepR quorum sensing receptor and virulence in a Burkholderia cepacia complex member using non-native lactone ligands” (Scientific Reports, 2019).

Changes are numbered by the printed parent chain. Values joined by “and” are separate entries in the source; they are usually repeats but may differ in a detail not shown here. Identical values can stand only once. A value given as a limit tells only on which side of the number the result lay.

In one assay the target is T1, CepR (Burkholderia cenocepacia, UniProt B4EMD0).
T1 sequence (B4EMD0 1-239): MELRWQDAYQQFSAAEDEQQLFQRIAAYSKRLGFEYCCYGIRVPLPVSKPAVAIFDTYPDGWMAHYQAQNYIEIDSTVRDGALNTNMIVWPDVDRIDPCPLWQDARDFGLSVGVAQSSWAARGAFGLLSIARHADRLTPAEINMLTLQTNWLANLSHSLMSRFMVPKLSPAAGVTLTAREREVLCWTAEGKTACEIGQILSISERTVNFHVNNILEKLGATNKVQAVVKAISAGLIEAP
As to the kind of experiment: CepR antagonism in E. coli β-galactosidase reporter (Ec-reporter), competition against C8-AHL. It counts as cell-based, B. cenocepacia. Particulars: Table S3, Ec-reporter; screening conc. 100 μM; against 10 nM C8-AHL. In short, it runs like this:
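CepR antagonism was measured in E. coli JLD271 (∆sdiA) carrying pJN105-cepR, which expresses B. cenocepacia CepR from an arabinose-inducible pBAD promoter, and pSC11-cepI, which fuses lacZ to the cepI promoter. Induced cells were grown 4 h with compound and 10 nM C8-AHL. β-Galactosidase activity was then read by CPRG cleavage at 37 °C after Z Buffer permeabilization.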
Regarding `O=C(CCc1ccc(F)cc1)N[C@H]1CCOC1=O` [Compound E29], the “Inh% (100-Act%)” value is -10%.

As for `O=C(CCc1ccc(Cl)cc1)N[C@H]1CCOC1=O` [Compound E30], the “Inh% (100-Act%)” value is on record as -10%.

`O=C(CCc1cccc(Br)c1)N[C@H]1CCOC1=O` [Compound E31]: the “Inh% (100-Act%)” value is -20%.

For the compound `O=C(CCc1cccc(I)c1)N[C@H]1CCOC1=O` [Compound E33], the “Inh% (100-Act%)” value is reported as -20%.

As for `CSc1ccc(CCC(=O)N[C@H]2CCOC2=O)cc1` [Compound E34], the “Inh% (100-Act%)” value is reported as -20%.

Consider `O=C(CCc1cccc(C(F)(F)F)c1)N[C@H]1CCOC1=O` [Compound E36], for which the “Inh% (100-Act%)” value is on record as -10%.

Take `O=C(CCc1ccc2c(c1)OCO2)N[C@H]1CCOC1=O` [Compound E39]: the “Inh% (100-Act%)” value is -40%.

`CCCOc1ccc(C(=O)N[C@H]2CCOC2=O)cc1` [Compound R2]: the “Inh% (100-Act%)” value is -10%.

With `CC(C)Oc1ccc(C(=O)N[C@H]2CCOC2=O)cc1` [Compound R3], the “Inh% (100-Act%)” value is recorded as -10%.

For “meta-bromo-thiolactone [mBTL, reference compound]”, the “Inh% (100-Act%)” value was -60%.

The target in a further assay is T2, CepR (Burkholderia multivorans, UniProt Q93PF7).
T2 sequence (Q93PF7 1-239): T1 sequence (B4EMD0 1-239) with W5R, A51S, Q69H, N84S, R95Q, D97A
Put plainly: CepR antagonism in B. multivorans cepI::lacZ reporter (Bm-reporter), competition against C8-AHL. Format: cell-based. Particulars: Bm-reporter; against 5 nM C8-AHL. The text has this:
(§1) We next sought to assess if the CepR modulators identified in the Ec-reporter maintained their activities in a member of the Bcc. For these studies, we generated a B. multivorans cepI::lacZ reporter organism (Bm-reporter) using standard allelic exchange methods (see Methods). Along with B. cenocepacia, B. multivorans is one of the most commonly isolated Bcc members[6],[44]. We note that small molecules must contend with a different cellular environment in the native organism relative to E. coli[48]; however, as both CepR and the cepI promoter are highly conserved among Bcc species (Fig. S3), we reasoned that the majority of compounds identified in the Ec-reporter (containing B. cenocepacia versions of the cepI promoter and the cepR gene) would maintain their relative activity profiles in CepR in B. multivorans. […] Similar to the Ec-reporter, CepR binding to the cepI promoter then induces β-galactosidase production, allowing for the quantitation of CepR activity. Using the Bm-reporter organism, we observed robust activity for CepR in response to C8-AHL (EC50 = 0.7 nM, Table 3).
(§2) The B. multivorans cepI::lacZ strain was used to obtain dose-response data for CepR in response to synthetic AHLs. Overnight cultures of B. multivorans cepI::lacZ were grown in LB medium at 37 °C with shaking (225 rpm). Aliquots (200 μL) of a 1:10 dilution of this overnight culture were plated into 96-well plates containing varying concentrations of compound, and then grown for 4 h at 37 °C with shaking (225 rpm). β-galactosidase production was measured as described above for E. coli, with the following changes: permeabilized cells were incubated at 25 °C with substrate CPRG for ~10 min until positive control wells developed a deep red color. For agonism assays, synthetic compound was screened alongside and compared to the native ligand, C8-AHL (100 μM). For antagonism assays, the concentration of native ligand utilized was 5 nM (approximately equal to twice its EC50 value).
Regarding `CCCC(=O)CC(=O)N[C@H]1CCOC1=O` [3’O-C6-AHL, reference compound], the “Maximal Inhibition (%)” value is 85%.

The assay is the same for the next values; noted with them: Bm-reporter; against 5 nM C8-AHL; read-out: IC50.
As to `CCCC(=O)CC(=O)N[C@H]1CCOC1=O` [3’O-C6-AHL, reference compound], the IC50 was found to be 800 nM.

In another assay the target is T2, CepR. As to the kind of experiment: CepR agonism in B. multivorans cepI::lacZ reporter (Bm-reporter). Format: cell-based. Particulars: Bm-reporter, agonism dose-response; read-out: EC50.
Text: as §1, §2
For `O=C(CCc1ccc(Cl)cc1)N[C@H]1CCOC1=O` [Compound E30], the half-maximal effective concentration (EC50) was determined as 0.75 nM.

On to `O=C(CCc1cccc(Br)c1)N[C@H]1CCOC1=O` [Compound E31], for which the EC50 is not below 3400 nM.

For the compound `O=C(CCc1cccc(I)c1)N[C@H]1CCOC1=O` [Compound E33], the EC50 worked out at 0.15 nM.

`CSc1ccc(CCC(=O)N[C@H]2CCOC2=O)cc1` [Compound E34]: the EC50 was 0.94 nM.

For the compound `O=C(CCc1cccc(C(F)(F)F)c1)N[C@H]1CCOC1=O` [Compound E36], the EC50 was not below 3900 nM.

Staying with this assay, now noted: Bm-reporter; activity for 100 μM C8-AHL set to 100%; error ±10%.
For the compound `O=C(CCc1ccc(Cl)cc1)N[C@H]1CCOC1=O` [Compound E30], the “Maximal Activation (%)” value came to 84%.

Take `O=C(CCc1cccc(Br)c1)N[C@H]1CCOC1=O` [Compound E31]: the “Maximal Activation (%)” value is given as 78%.

For the compound `O=C(CCc1cccc(I)c1)N[C@H]1CCOC1=O` [Compound E33], the “Maximal Activation (%)” value came to 94%.

Take `CSc1ccc(CCC(=O)N[C@H]2CCOC2=O)cc1` [Compound E34]: the “Maximal Activation (%)” value is reported as 110%.

With `O=C(CCc1cccc(C(F)(F)F)c1)N[C@H]1CCOC1=O` [Compound E36], the “Maximal Activation (%)” value is 100%.

The assay is the same for the next values; noted with them: Table S4, Bm-reporter; read-out: EC50.
As for `O=C(CCc1ccc2c(c1)OCO2)N[C@H]1CCOC1=O` [Compound E39], the EC50 was determined as 9.1 nM.

Staying with this assay, now noted: Table S4, Bm-reporter; screening conc. 100 μM.
`O=C(CCc1ccc(F)cc1)N[C@H]1CCOC1=O` [Compound E29]: the Act% amounted to 94%.

The compound `O=C(CCc1ccc(Cl)cc1)N[C@H]1CCOC1=O` [Compound E30] came in with an Act% of 84%.

On to `O=C(CCc1cccc(Br)c1)N[C@H]1CCOC1=O` [Compound E31], for which the Act% is 78%.

`O=C(CCc1cccc(I)c1)N[C@H]1CCOC1=O` [Compound E33] had an Act% of 94%.

As to `CSc1ccc(CCC(=O)N[C@H]2CCOC2=O)cc1` [Compound E34], the Act% is 110%.

`O=C(CCc1cccc(C(F)(F)F)c1)N[C@H]1CCOC1=O` [Compound E36] showed an Act% of 103%.

Consider `O=C(CCc1ccc2c(c1)OCO2)N[C@H]1CCOC1=O` [Compound E39], for which the Act% was found to be 84%.

The compound `CCCOc1ccc(C(=O)N[C@H]2CCOC2=O)cc1` [Compound R2] displayed an Act% of 92%.

For the compound `CC(C)Oc1ccc(C(=O)N[C@H]2CCOC2=O)cc1` [Compound R3], the Act% worked out at 40%.

The target in another assay is T1, CepR. Put plainly: CepR agonism in E. coli β-galactosidase reporter (Ec-reporter) JLD271 [pJN105-cepR + pSC11-cepI]. Format: cell-based, B. cenocepacia. Particulars: Ec-reporter, EC50 comparison. In short, it runs like this: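 E. coli JLD271 (ΔsdiA) carrying arabinose-inducible CepR (27 mM L-arabinose) and cepI-lacZ fusion, grown 4 h with compound; β-galactosidase measured by CPRG cleavage at 37 °C (~30 min), normalized to OD600. Agonism compared with C8-AHL at 100 μM; screen at 100 μM or solubility limit, then dose-response; ≥3 trials.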
`CSc1ccc(CCC(=O)N[C@H]2CCOC2=O)cc1` [Compound E34]: the “Fold more potent than C8-AHL” value was approximately 100 fold.

The assay is the same for the next values; noted with them: Ec-reporter, agonism dose-response.
Regarding `O=C(CCc1ccc(F)cc1)N[C@H]1CCOC1=O` [Compound E29], the EC50 amounted to 2.3 nM.

Regarding `O=C(CCc1ccc(Cl)cc1)N[C@H]1CCOC1=O` [Compound E30], the EC50 is 4.4 nM.

In the case of `O=C(CCc1cccc(Br)c1)N[C@H]1CCOC1=O` [Compound E31], the EC50 came to 4.4 nM.

For the compound `O=C(CCc1cccc(I)c1)N[C@H]1CCOC1=O` [Compound E33], the EC50 worked out at 0.95 nM and the “EC50 (nM)” value is given as “sub-nanomolar”.

As to `CSc1ccc(CCC(=O)N[C@H]2CCOC2=O)cc1` [Compound E34], the EC50 is 0.07 nM and 0.071 nM.

For the compound `O=C(CCc1cccc(C(F)(F)F)c1)N[C@H]1CCOC1=O` [Compound E36], the EC50 was 26 nM.

Turning to `O=C(CCc1ccc2c(c1)OCO2)N[C@H]1CCOC1=O` [Compound E39], the concentration for a half-maximal effect (EC50) is 1.4 nM.

Staying with this assay, now noted: Ec-reporter; activity for 100 μM C8-AHL set to 100%; error ±10%.
For `O=C(CCc1ccc(F)cc1)N[C@H]1CCOC1=O` [Compound E29], the “Maximal Activation (%)” value turned out to be 92%.

With `O=C(CCc1ccc(Cl)cc1)N[C@H]1CCOC1=O` [Compound E30], the “Maximal Activation (%)” value is listed as 85%.

In the case of `O=C(CCc1cccc(Br)c1)N[C@H]1CCOC1=O` [Compound E31], the “Maximal Activation (%)” value came to 89%.

Regarding `O=C(CCc1cccc(I)c1)N[C@H]1CCOC1=O` [Compound E33], the “Maximal Activation (%)” value amounted to 92%.

Regarding `CSc1ccc(CCC(=O)N[C@H]2CCOC2=O)cc1` [Compound E34], the “Maximal Activation (%)” value is 104% and 100%.

As to `O=C(CCc1cccc(C(F)(F)F)c1)N[C@H]1CCOC1=O` [Compound E36], the “Maximal Activation (%)” value is given as 92%.

Take `O=C(CCc1ccc2c(c1)OCO2)N[C@H]1CCOC1=O` [Compound E39]: the “Maximal Activation (%)” value was 100%.

The assay is the same for the next values; noted with them: Table S2, Ec-reporter.
With `CCCOc1ccc(C(=O)N[C@H]2CCOC2=O)cc1` [Compound R2], the EC50 was 38 nM.

With `CC(C)Oc1ccc(C(=O)N[C@H]2CCOC2=O)cc1` [Compound R3], the EC50 was found to be 94 nM.

The assay is the same for the next values; noted with them: Table S2, Ec-reporter; screening conc. 100 μM.
Turning to `O=C(CCc1ccc(F)cc1)N[C@H]1CCOC1=O` [Compound E29], the Act% is 92%.

Take `O=C(CCc1ccc(Cl)cc1)N[C@H]1CCOC1=O` [Compound E30]: the Act% is on record as 85%.

As for `O=C(CCc1cccc(Br)c1)N[C@H]1CCOC1=O` [Compound E31], the Act% is 89%.

Consider `O=C(CCc1cccc(I)c1)N[C@H]1CCOC1=O` [Compound E33], for which the Act% is 92%.

As to `CSc1ccc(CCC(=O)N[C@H]2CCOC2=O)cc1` [Compound E34], the Act% is on record as 104%.

On to `O=C(CCc1cccc(C(F)(F)F)c1)N[C@H]1CCOC1=O` [Compound E36], for which the Act% stood at 92%.

`O=C(CCc1ccc2c(c1)OCO2)N[C@H]1CCOC1=O` [Compound E39]: the Act% worked out at 103%.

With `CCCOc1ccc(C(=O)N[C@H]2CCOC2=O)cc1` [Compound R2], the Act% was found to be 98%.

`CC(C)Oc1ccc(C(=O)N[C@H]2CCOC2=O)cc1` [Compound R3]: the Act% is given as 92%.

Take “meta-bromo-thiolactone [mBTL, reference compound]”: the Act% is 0.4%.
